Experimental data: US12239643B2, “Therapeutic agent for inflammatory diseases, autoimmune diseases, fibrotic diseases, and cancer diseases” (MEIJI SEIKA PHARMA CO., LTD., priority 2018, dated 2025)

Assays:
PDE4 = experiment: Evaluation of PDE4 inhibitory activity, scintillation proximity assay; format: biochemical; conditions: scintillation proximity assay; read-out: PDE4 Inhibitory Activity (Evaluation 1; concentration for the inhibition rate of 50%)
Procedure, shortened: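 IC50 was derived from inhibition curves, referenced to an enzyme-free blank and a DMSO-only control. Compound, PDE4 preparation and tritiated cAMP reacted 120 min at RT in Tris-HCl buffer (pH 7.4) with MgCl2, EGTA and BSA; YSi-SPA beads with ZnSO4 bound product before scintillation counting.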

[1] = Hepatic metabolic stability (rat liver microsome method); format: in vitro ADME; conditions: rat liver microsomes 0.5 mg/mL, test substance 1 μM, NADPH 1 mM, 37° C., 30 minutes
Procedure: Metabolic stability in rat liver microsomes was evaluated by the following method. First, in 100 mM of potassium phosphate buffer solution (pH 7.4), liver microsomes (concentration at reaction: 0.5 mg/mL) and the test substance (concentration at reaction: 1 μM) were preincubated at 37° C. Five minutes later, 100 mM of potassium phosphate buffer (pH 7.4) solution of NADPH (concentration at reaction: 1 mM) was mixed thereto to start the reaction. After a predetermined time passed, acetonitrile was mixed to the reaction mixture to stop the reaction. Here, the reaction time was 0 and 30 minutes, and drug concentration measurement was performed for each time period using LC-MS. The % remaining value of the test compound was calculated from the value for 0 minutes and the value for 30 minutes, using the calculation formula below: % Remaining=(Value for 30 Minutes/Value for 0 Minutes)×100
The results of measuring the rat liver microsome metabolic Stability (% remaining for 30-minute reaction) for the test compound by the above method were evaluated in accordance with the following evaluated basis; A: a % remaining rate of 75% or more, B: 60% or more and less than 75%, C: 45% or more and less than 60%, and D: less than 45%.

## CC(C)(O)C(F)(F)Oc1ccc(-n2cccn2)c2oc(N3CC4CCC(C3)N4)nc12 [Example 316, 1-((2-(3,8-Diazabicyclo[3.2.1]octan-3-yl)-7-(1H-pyrazol-1-yl)benzo[d]oxazol-4-yl)oxy)-1,1-difluoro-2-methylpropan-2-ol]
PDE4
  IC50: < 0.1 µM
[1]
  Residual ratio (% remaining for 30-minute reaction): A (A: a % remaining rate of 75% or more)

## CC(C)(O)C(F)(F)Oc1ccc(-c2ccccn2)c2oc(N3CC4CCC(C3)N4)nc12 [Example 317, 1-((2-(3,8-Diazabicyclo[3.2.1]octan-3-yl)-7-(pyridin-2-yl)benzo[d]oxazol-4-yl)oxy)-1,1-difluoro-2-methylpropan-2-ol]
PDE4
  IC50: < 0.1 µM
[1]
  Residual ratio (% remaining for 30-minute reaction): A (A: a % remaining rate of 75% or more)

## Cc1csc(-c2ccc(OC(F)(F)C(C)(C)O)c3nc(N4CC5CCC(C4)N5)oc23)n1 [Example 318, 1-((2-(3,8-Diazabicyclo[3.2.1]octan-3-yl)-7-(4-methylthiazol-2-yl)benzo[d]oxazol-4-yl)oxy)-1,1-difluoro-2-methylpropan-2-ol]
PDE4
  IC50: < 0.1 µM
[1]
  Residual ratio (% remaining for 30-minute reaction): B (B: 60% or more and less than 75%)

## OCC(F)(F)Oc1ccc(-c2ccc(F)cn2)c2oc(N3CC4CC(C3)N4)nc12 [Example 319, 2-((2-(3,6-Diazabicyclo[3.1.1]heptan-3-yl)-7-(5-fluoropyridin-2-yl)benzo[d]oxazol-4-yl)oxy)-2,2-difluoroethan-1-ol]
PDE4
  IC50: < 0.1 µM
[1]
  Residual ratio (% remaining for 30-minute reaction): A (A: a % remaining rate of 75% or more)

## CC(C)(O)C(F)(F)Oc1ccc(-c2ncco2)c2oc(N3CC4CCC(C3)N4)nc12 [Example 321, 1-((2-(3,8-Diazabicyclo[3.2.1]octan-3-yl)-7-(oxazol-2-yl)benzo[d]oxazol-4-yl)oxy)-1,1-difluoro-2-methylpropan-2-ol]
PDE4
  IC50: < 0.1 µM
[1]
  Residual ratio (% remaining for 30-minute reaction): A (A: a % remaining rate of 75% or more)

## CC(C)(O)C(F)(F)Oc1ccc(-n2nccn2)c2oc(N3CC4CCC(C3)N4)nc12 [Example 322, 1-((2-(3,8-Diazabicyclo[3.2.1]octan-3-yl)-7-(2H-1,2,3-triazol-2-yl)benzo[d]oxazol-4-yl)oxy)-1,1-difluoro-2-methylpropan-2-ol]
PDE4
  IC50: < 0.1 µM
[1]
  Residual ratio (% remaining for 30-minute reaction): A (A: a % remaining rate of 75% or more)

## c1csc(-c2ccc(O[C@H]3CCOC3)c3nc(N4CC5CC(C4)N5)oc23)n1 [Example 323, 2-(3,6-Diazabicyclo[3.1.1]heptan-3-yl)-4-(((S)-tetrahydrofuran-3-yl)oxy)-7-(thiazol-2-yl)benzo[d]oxazole]
PDE4
  IC50: < 0.1 µM
[1]
  Residual ratio (% remaining for 30-minute reaction): B (B: 60% or more and less than 75%)

## c1csc(-c2ccc(O[C@@H]3CCOC3)c3nc(N4CC5CC(C4)N5)oc23)n1 [Example 324, 2-(3,6-Diazabicyclo[3.1.1]heptan-3-yl)-4-(((R)-tetrahydrofuran-3-yl)oxy)-7-(thiazol-2-yl)benzo[d]oxazole]
PDE4
  IC50: < 0.1 µM
[1]
  Residual ratio (% remaining for 30-minute reaction): A (A: a % remaining rate of 75% or more)

## c1csc(-c2ccc(OC3COC3)c3nc(N4CC5CC(C4)N5)oc23)n1 [Example 325, 2-(3,6-Diazabicyclo[3.1.1]heptan-3-yl)-4-(oxetan-3-yloxy)-7-(thiazol-2-yl)benzo[d]oxazole]
PDE4
  IC50: < 0.1 µM
[1]
  Residual ratio (% remaining for 30-minute reaction): A (A: a % remaining rate of 75% or more)

## CC(C)(O)C(F)(F)Oc1ccc(-c2ncns2)c2oc(N3CC4CCC(C3)N4)nc12 [Example 327, 1-((2-(3,8-Diazabicyclo[3.2.1]octan-3-yl)-7-(1,2,4-thiadiazol-5-yl)benzo[d]oxazol-4-yl)oxy)-1,1-difluoro-2-methylpropan-2-ol]
PDE4
  IC50: < 0.1 µM
[1]
  Residual ratio (% remaining for 30-minute reaction): B (B: 60% or more and less than 75%)

## Cn1ccc(-c2ccc(OC(F)(F)C(C)(C)O)c3nc(N4CC5CCC(C4)N5)oc23)n1 [Example 328, 1-((2-(3,8-Diazabicyclo[3.2.1]octan-3-yl)-7-(1-methyl-1H-pyrazol-3-yl)benzo[d]oxazol-4-yl)oxy)-1,1-difluoro-2-methylpropan-2-ol]
PDE4
  IC50: < 0.1 µM
[1]
  Residual ratio (% remaining for 30-minute reaction): A (A: a % remaining rate of 75% or more)

## CC(C)(O)C(F)(F)Oc1ccc(-c2ccc(F)cn2)c2oc(N3CC4CC(C3)N4)nc12 [Example 329, 1-((2-(3,6-Diazabicyclo[3.1.1]heptan-3-yl)-7-(5-fluoropyridin-2-yl)benzo[d]oxazol-4-yl)oxy)-1,1-difluoro-2-methylpropan-2-ol]
PDE4
  IC50: < 0.1 µM
[1]
  Residual ratio (% remaining for 30-minute reaction): A (A: a % remaining rate of 75% or more)

## CC(C)(O)C(F)(F)Oc1ccc(-c2ncccn2)c2oc(N3CC4CCC(C3)N4)nc12 [Example 330, 1-((2-(3,8-Diazabicyclo[3.2.1]octan-3-yl)-7-(pyrimidin-2-yl)benzo[d]oxazol-4-yl)oxy)-1,1-difluoro-2-methylpropan-2-ol]
PDE4
  IC50: < 0.1 µM
[1]
  Residual ratio (% remaining for 30-minute reaction): A (A: a % remaining rate of 75% or more)

## CC(C)(O)C(F)(F)Oc1ccc(-c2ccsn2)c2oc(N3CC4CCC(C3)N4)nc12 [Example 331, 1-((2-(3,8-Diazabicyclo[3.2.1]octan-3-yl)-7-(isothiazol-3-yl)benzo[d]oxazol-4-yl)oxy)-1,1-difluoro-2-methylpropan-2-ol]
PDE4
  IC50: < 0.1 µM
[1]
  Residual ratio (% remaining for 30-minute reaction): B (B: 60% or more and less than 75%)

## CC(C)(O)C(F)(F)Oc1ccc(-c2ccc(F)cn2)c2oc(N3CC4CCC(C3)N4)nc12 [Example 332, 1-((2-(3,8-Diazabicyclo[3.2.1]octan-3-yl)-7-(5-fluoropyridin-2-yl)benzo[d]oxazol-4-yl)oxy)-1,1-difluoro-2-methylpropan-2-ol]
PDE4
  IC50: < 0.1 µM
[1]
  Residual ratio (% remaining for 30-minute reaction): A (A: a % remaining rate of 75% or more)

## Cc1nsc(-c2ccc(OC(F)(F)C(C)(C)O)c3nc(N4CC5CCC(C4)N5)oc23)n1 [Example 333, 1-((2-(3,8-Diazabicyclo[3.2.1]octan-3-yl)-7-(3-methyl-1,2,4-thiadiazol-5-yl)benzo[d]oxazol-4-yl)oxy)-1,1-difluoro-2-methylpropan-2-ol]
PDE4
  IC50: 0.1 to 1 µM
[1]
  Residual ratio (% remaining for 30-minute reaction): B (B: 60% or more and less than 75%)

## O=S(=O)(c1ccc(-c2nccs2)c2oc(N3CC4CC(C3)N4)nc12)C(F)(F)F [Example 334, 2-(3,6-Diazabicyclo[3.1.1]heptan-3-yl)-7-(thiazol-2-yl)-4-((trifluoromethyl)sulfonyl)benzo[d]oxazole]
PDE4
  IC50: < 0.1 µM
[1]
  Residual ratio (% remaining for 30-minute reaction): B (B: 60% or more and less than 75%)

## N#Cc1ccc(-c2nccs2)c2oc(N3CC4CC(C3)N4)nc12 [Example 335, 2-(3,6-Diazabicyclo[3.1.1]heptan-3-yl)-7-(thiazol-2-yl)benzo[d]oxazole-4-carbonitrile]
PDE4
  IC50: < 0.1 µM
[1]
  Residual ratio (% remaining for 30-minute reaction): A (A: a % remaining rate of 75% or more)

## FC(F)(F)c1ccc(Oc2ccc(-c3nccs3)c3oc(N4CC5CC(C4)N5)nc23)nc1 [Example 336, 2-(3,6-Diazabicyclo[3.1.1]heptan-3-yl)-7-(thiazol-2-yl)-4-((5-(trifluoromethyl)pyridin-2-yl)oxy)benzo[d]oxazole]
PDE4
  IC50: < 0.1 µM
[1]
  Residual ratio (% remaining for 30-minute reaction): B (B: 60% or more and less than 75%)

## c1cnc(Oc2ccc(-c3nccs3)c3oc(N4CC5CC(C4)N5)nc23)nc1 [Example 338, 2-(3,6-Diazabicyclo[3.1.1]heptan-3-yl)-4-(pyrimidin-2-yloxy)-7-(thiazol-2-yl)benzo[d]oxazole]
PDE4
  IC50: < 0.1 µM
[1]
  Residual ratio (% remaining for 30-minute reaction): A (A: a % remaining rate of 75% or more)

## c1cnc(Oc2ccc(-c3nccs3)c3oc(N4CC5CC(C4)N5)nc23)cn1 [Example 339, 2-(3,6-Diazabicyclo[3.1.1]heptan-3-yl)-4-(pyrazin-2-yloxy)-7-(thiazol-2-yl)benzo[d]oxazole]
PDE4
  IC50: < 0.1 µM
[1]
  Residual ratio (% remaining for 30-minute reaction): B (B: 60% or more and less than 75%)

## Cc1cc(C(F)(F)F)c(Oc2ccc(-c3nccs3)c3oc(N4CC5CC(C4)N5)nc23)nn1 [Example 340, 2-(3,6-Diazabicyclo[3.1.1]heptan-3-yl)-4-((6-methyl-4-(trifluoromethyl)pyridazin-3-yl)oxy)-7-(thiazol-2-yl)benzo[d]oxazole]
PDE4
  IC50: < 0.1 µM
[1]
  Residual ratio (% remaining for 30-minute reaction): A (A: a % remaining rate of 75% or more)

## OCc1ccc(Oc2ccc(-c3nccs3)c3oc(N4CC5CC(C4)N5)nc23)nc1 [Example 341, (6-((2-(3,6-Diazabicyclo[3.1.1]heptan-3-yl)-7-(thiazol-2-yl)benzo[d]oxazol-4-yl)oxy)pyridin-3-yl)methanol]
PDE4
  IC50: < 0.1 µM
[1]
  Residual ratio (% remaining for 30-minute reaction): A (A: a % remaining rate of 75% or more)

## OCc1cnc(Oc2ccc(-c3nccs3)c3oc(N4CC5CC(C4)N5)nc23)c(C(F)(F)F)c1 [Example 342, (6-((2-(3,6-Diazabicyclo[3.1.1]heptan-3-yl)-7-(thiazol-2-yl)benzo[d]oxazol-4-yl)oxy)-5-(trifluoromethyl)pyridin-3-yl)methanol]
PDE4
  IC50: < 0.1 µM
[1]
  Residual ratio (% remaining for 30-minute reaction): B (B: 60% or more and less than 75%)
